Assay results published in patent US9066948B2, “Oxadiazolo[3,2-a]pyrimidines and thiadiazolo[3,2-a]pyrimidines” (THE UNITED STATES OF AMERICA AS REPRESENTED BY THE …, priority 2010, dated 2015).

Legend:
[1] = test system: platelets; assay: Platelet adhesion assay: calcein-labeled platelets on fibrinogen-coated wells; format: cell-based; settings: Homo sapiens, mean±SD
Experimental: Thirty microliters of human fibrinogen (50 μg/mL) in Tris/saline (100 mM NaCl, 50 mM Tris/HCl, pH 7.4; American Diagnostica, Stamford, Conn.) are added to black, clear-bottom, untreated polystyrene, nonsterile 384-well microtiter plate wells (Corning no. 3711; Acton, Mass.). […] An additional wash is performed using HBMT with 1 mM MgCl2 and 2 mM CaCl2. Calcein-labeled platelets (final concentration 1×10^11/L) are treated with selected Compounds of the Invention (final concentration of 100 μM, 30 μM, 10 μM or 1 μM) at 22° C. for 20 minutes. Thirty microliters of platelets are then added to the wells. After 1 hour of adhesion, wells are washed 3 times with HBMT-1 mM MgCl2/2 mM CaCl2 and the plates are read by a fluorescent microtiter plate reader (Envision; Perkin Elmer) to detect calcein fluorescence (490 nm excitation and 515 nm emission). Negative controls consist of wells containing platelets without compounds of the invention.

[2] = test system: WT mouse platelets; assay: ADP-induced platelet aggregation, mouse PRP (Example 45); format: cell-based
Experimental: Blood may be drawn via cardiac puncture from anesthetized Sprague Dawley rats (Taconic, Hudson, N.Y.), WT C57B1/6 mice (Jackson Laboratories, Bar Harbor, Me.), and mice expressing hαIIb/mβ3 and diluted 1:1 with a mixture of 4 parts 0.165 […], pH 7.4 containing 2 mM CaCl2 and 1 mM MgCl2. Blood from consenting human volunteers is obtained from a peripheral vein using a 19 gauge needle and anticoagulated with 1:10 vol 3.8% sodium citrate. Platelet-rich plasma (PRP) may be isolated by centrifugation at 22° C. at 350 g for 10 minutes (rats); 250 g for 2.5 minutes (mice); or 650 g for 4 minutes (human). Mouse PRP samples may be adjusted to 400,000 platelets/μl with the buffer used for dilution and human PRP may be adjusted to 300,000 platelets/μl with platelet-poor plasma. […] Platelet aggregation may be induced by adding to PRP adenosine diphosphate (ADP) at 30 μM (rats and WT mice), 20 or 30 μM (hαIIb/mβ3 mice), or 5 μM (humans), and light transmission may be measured over time in an aggregometer (Kowa AG-10E, Tokyo, Japan) with stirring. Percent inhibition may be calculated by comparing the initial slope of untreated samples to the samples treated with the Compounds of the Invention.

[3] = test system: hαIIb/mβ3 platelets; assay: ADP-induced aggregation of platelets from mice expressing hαIIb/mβ3 (Example 45); format: cell-based, mouse
Experimental: Blood may be drawn via cardiac puncture from anesthetized Sprague Dawley rats (Taconic, Hudson, N.Y.), WT C57B1/6 mice (Jackson Laboratories, Bar Harbor, Me.), and mice expressing hαIIb/mβ3 and diluted 1:1 with a mixture of 4 parts 0.165 […], pH 7.4 containing 2 mM CaCl2 and 1 mM MgCl2. Blood from consenting human volunteers is obtained from a peripheral vein using a 19 gauge needle and anticoagulated with 1:10 vol 3.8% sodium citrate. Platelet-rich plasma (PRP) may be isolated by centrifugation at 22° C. at 350 g for 10 minutes (rats); 250 g for 2.5 minutes (mice); or 650 g for 4 minutes (human). Mouse PRP samples may be adjusted to 400,000 platelets/μl with the buffer used for dilution and human PRP may be adjusted to 300,000 platelets/μl with platelet-poor plasma. Samples of PRP may be either untreated or incubated for 5 minutes at 37° C. with the Compounds of the Invention (100 μM). Platelet aggregation may be induced by adding to PRP adenosine diphosphate (ADP) at 30 μM (rats and WT mice), 20 or 30 μM (hαIIb/mβ3 mice), or 5 μM (humans), and light transmission may be measured over time in an aggregometer (Kowa AG-10E, Tokyo, Japan) with stirring. Percent inhibition may be calculated by comparing the initial slope of untreated samples to the samples treated with the Compounds of the Invention.

[4] = test system: washed platelets; assay: Platelet adhesion/aggregation to collagen; format: cell-based, human
Experimental: Washed platelets are prepared as per the primary screening assay, suspended in HBMT containing 1 mM MgCl2 (platelet adhesion to collagen) or 2 mM CaCl2/1 mM MgCl2 (platelet adhesion to fibrinogen) and adjusted to a count of 250×10^9/L. HEK293 cells stably expressing normal human αVβ3 or normal human αIIbβ3 are suspended in HBMT containing either 1 mM MgCl2 (HEK293 cells expressing αVβ3 for adhesion to vitronectin) or 2 mM CaCl2/1 mM MgCl2 (HEK293 cells expressing αIIbβ3 for adhesion to fibrinogen); the cell counts are adjusted to 10^6/mL. Polystyrene 96-well microtiter plates (Nunc) are coated with either fibrinogen (50 μg/mL), vitronectin (5 μg/mL), or collagen (33 μg/mL, rat tail type 1; Becton Dickinson) for 1 hour, and blocked with HBMT for at least 1 hour. Platelets and cells are treated with the compound of Example 27 of the current invention or 2-ethyl-7-(piperazin-1-yl)-5H-[1,3,4]thiadiazolo-[3,2-a]pyrimidin-5-one of U.S. Ser. No. 12/514,286 in the presence or absence of anti-α2β1 mAb 6F1, anti-αIIbβ3 mAb 10E5, anti-αIIbβ3 mAb 10E5+αVβ3 mAb 7E3, αVβ3-specific mAb LM609, or anti-αVβ3+αIIbβ3 mAb 7E3, for 15 minutes at 37° C. before being added to the microtiter wells. After adhering for 1 hour at either 22° C. (platelets) or 37° C. (cells), nonadherent platelets or cells are removed by washing 3 times with HBMT containing the same ion composition as the buffer used for adhesion. […] In other experiments, 8-chambered glass coverslips (Nunc) are coated with collagen (33 μg/mL) for 1 hour at 22° C. Washed platelets are allowed to adhere for 1 hour at 22° C. and the coverslips are stained with the Alexa-488-conjugated β3-specific mAb 7H2. Adherent platelets are imaged using a Zeiss LSM-510 confocal system with Axiovert 200 microscope (Carl Zeiss, Heidelberg, Germany) using a Plan-Apochromat 100/1.4 NA oil DIC objective.

[5] = target: T1, HEK293 cells stably expressing normal human αIIbβ3 (Homo sapiens, UniProt P05106+P08514); assay: αIIbβ3-mediated cell adhesion to fibrinogen; format: cell-based; settings: same concentration as αVβ3 experiments (10 μM), n=4
T1 construct: expressed in transfected cells; host or cells: HEK293
Experimental: Washed platelets are prepared as per the primary screening assay, suspended in HBMT containing 1 mM MgCl2 (platelet adhesion to collagen) or 2 mM CaCl2/1 mM MgCl2 (platelet adhesion to fibrinogen) and adjusted to a count of 250×10^9/L. HEK293 cells stably expressing normal human αVβ3 or normal human αIIbβ3 are suspended in HBMT containing either 1 mM MgCl2 (HEK293 cells expressing αVβ3 for adhesion to vitronectin) or 2 mM CaCl2/1 mM MgCl2 (HEK293 cells expressing αIIbβ3 for adhesion to fibrinogen); the cell counts are adjusted to 10^6/mL. Polystyrene 96-well microtiter plates (Nunc) are coated with either fibrinogen (50 μg/mL), vitronectin (5 μg/mL), or collagen (33 μg/mL, rat tail type 1; Becton Dickinson) for 1 hour, and blocked with HBMT for at least 1 hour. Platelets and cells are treated with the compound of Example 27 of the current invention or 2-ethyl-7-(piperazin-1-yl)-5H-[1,3,4]thiadiazolo-[3,2-a]pyrimidin-5-one of U.S. Ser. No. 12/514,286 in the presence or absence of anti-α2β1 mAb 6F1, anti-αIIbβ3 mAb 10E5, anti-αIIbβ3 mAb 10E5+αVβ3 mAb 7E3, αVβ3-specific mAb LM609, or anti-αVβ3+αIIbβ3 mAb 7E3, for 15 minutes at 37° C. before being added to the microtiter wells. After adhering for 1 hour at either 22° C. (platelets) or 37° C. […]

[6] = test system: washed platelets; assay: Effect of Mg2+ on washed platelet aggregation induced by thrombin receptor activating peptide (SFLLRN); format: cell-based, human; settings: compound at 1 μM; SFLLRN 10 μM
Experimental: Washed platelets are resuspended in buffer containing fibrinogen (200 μg/ml) and 1 mM […] in combination with either 1 mM or 20 mM Mg^2+. Aggregation is induced by adding a thrombin receptor activating peptide (SFLLRN) at 10 μM.

T1 sequence (P08514 32-887 limits assumed): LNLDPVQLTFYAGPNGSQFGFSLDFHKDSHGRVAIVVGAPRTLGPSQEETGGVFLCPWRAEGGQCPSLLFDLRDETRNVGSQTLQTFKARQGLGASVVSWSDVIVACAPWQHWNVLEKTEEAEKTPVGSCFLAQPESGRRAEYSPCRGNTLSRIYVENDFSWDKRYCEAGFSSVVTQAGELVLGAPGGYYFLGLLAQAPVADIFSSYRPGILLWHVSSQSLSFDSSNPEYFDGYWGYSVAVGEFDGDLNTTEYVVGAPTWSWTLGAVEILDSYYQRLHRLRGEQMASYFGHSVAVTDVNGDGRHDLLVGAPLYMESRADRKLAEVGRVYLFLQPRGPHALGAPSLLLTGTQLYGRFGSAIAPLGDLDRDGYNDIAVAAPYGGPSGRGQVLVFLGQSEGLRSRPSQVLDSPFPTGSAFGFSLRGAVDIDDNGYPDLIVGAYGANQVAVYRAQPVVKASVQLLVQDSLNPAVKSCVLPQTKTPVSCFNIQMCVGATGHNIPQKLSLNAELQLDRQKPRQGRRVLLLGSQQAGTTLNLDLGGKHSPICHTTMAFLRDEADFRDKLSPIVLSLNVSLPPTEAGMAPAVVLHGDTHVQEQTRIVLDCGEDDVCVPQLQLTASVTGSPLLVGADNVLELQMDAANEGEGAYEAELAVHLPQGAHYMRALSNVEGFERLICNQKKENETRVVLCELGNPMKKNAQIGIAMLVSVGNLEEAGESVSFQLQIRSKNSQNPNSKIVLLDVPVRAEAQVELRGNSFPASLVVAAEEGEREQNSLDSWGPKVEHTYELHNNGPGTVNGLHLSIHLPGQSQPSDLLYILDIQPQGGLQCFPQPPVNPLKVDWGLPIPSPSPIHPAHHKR
T1 sequence (P08514 891-1039 partner limits assumed): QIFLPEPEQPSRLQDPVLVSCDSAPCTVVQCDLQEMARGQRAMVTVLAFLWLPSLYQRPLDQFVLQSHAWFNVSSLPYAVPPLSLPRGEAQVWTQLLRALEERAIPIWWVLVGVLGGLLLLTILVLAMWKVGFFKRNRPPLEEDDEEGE
T1 sequence (P05106 27-788): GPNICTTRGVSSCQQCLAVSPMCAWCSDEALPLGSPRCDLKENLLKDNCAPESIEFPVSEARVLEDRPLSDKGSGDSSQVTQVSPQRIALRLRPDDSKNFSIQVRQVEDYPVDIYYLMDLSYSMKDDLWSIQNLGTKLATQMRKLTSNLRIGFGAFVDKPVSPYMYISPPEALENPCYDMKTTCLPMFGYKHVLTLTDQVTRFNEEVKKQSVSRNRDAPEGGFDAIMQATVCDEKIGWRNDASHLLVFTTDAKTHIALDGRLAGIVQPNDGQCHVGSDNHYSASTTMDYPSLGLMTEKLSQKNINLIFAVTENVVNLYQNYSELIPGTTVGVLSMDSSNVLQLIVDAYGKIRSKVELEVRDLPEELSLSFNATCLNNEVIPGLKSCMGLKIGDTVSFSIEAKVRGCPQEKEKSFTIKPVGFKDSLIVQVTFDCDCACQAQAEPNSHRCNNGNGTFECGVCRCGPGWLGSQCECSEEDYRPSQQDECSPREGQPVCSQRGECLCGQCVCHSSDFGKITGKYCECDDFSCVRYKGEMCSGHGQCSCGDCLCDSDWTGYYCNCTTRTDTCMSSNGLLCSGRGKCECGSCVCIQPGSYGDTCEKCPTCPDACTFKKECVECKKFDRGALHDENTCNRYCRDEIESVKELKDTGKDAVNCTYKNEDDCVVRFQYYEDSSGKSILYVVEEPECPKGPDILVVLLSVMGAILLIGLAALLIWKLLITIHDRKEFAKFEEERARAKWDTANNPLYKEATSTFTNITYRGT

NCC(=O)Nc1cccc(-c2nn3c(=O)cc(N4CCNCC4)nc3s2)c1 [Example 27, 2-amino-N-(3-(5-oxo-7-(piperazin-1-yl)-5H-[1,3,4]thiadiazolo[3,2-a]pyrimidin-2-yl)phenyl)acetamide]
inhibition at 10 µM ([1]; 10 μM): 66 ± 10%
inhibition at 30 µM ([1]; 30 μM, 5 separate experiments): 80 ± 13%
inhibition at 100 µM ([1]; 100 μM, 5 separate experiments): 83 ± 7%
selectivity for human compared to mouse or rat αIIbβ3 [2]: selective for human WIND compared to mouse or rat αIIbβ3
inhibition of mouse platelet aggregation induced by ADP ([2]; 1 μM): does not inhibit either mouse or rat platelet aggregation
inhibition of aggregation of platelets from a mouse expressing hαIIb/mβ3 [3]: essentially completely inhibits the aggregation
inhibition of platelet adhesion/aggregation to collagen ([4]; 1-100 μM): ~30%
further inhibition of adhesion/aggregation to collagen when combined with anti-αIIbβ3 antibody 10E5 ([4]; combination with mAb 10E5): does not further inhibit adhesion/aggregation
platelet adhesion to collagen, microscopic analysis ([4]; confocal microscopy of adherent platelets): does not decrease platelet adhesion to collagen
inhibition at 10 µM [5]: 65 ± 5%
effect of Mg2+ on the inhibition of SFLLRN-induced platelet aggregation [6]: clearly attenuated at 20 mM Mg^2+
